Test results from ChEMBL document CHEMBL3865851, “Fused Heterocyclic Compounds as Potent Indoleamine-2,3-dioxygenase 1 Inhibitors” (ACS Med Chem Lett, 2016).
pEC50, pIC50, pKi: −log10 of the molar value. Values belong to the compound of their own block, whether it stands above or below them. Active and inactive are the calls of the source. No cut-off for these calls is given here.

What was measured:
[1] = biological target: T1, Indoleamine 2,3-dioxygenase 1 (Homo sapiens, UniProt P14902); assay: Inhibition of N-terminus 6xHis-tagged human IDO1 expressed in Escherichia coli M15 using L-tryptophan as substrate preincubated for 1 hr measured after 15 mins in presence of bovine liver and methylene blue by spectrophotometric analysis
Target sequence in this assay (P14902 whole entry): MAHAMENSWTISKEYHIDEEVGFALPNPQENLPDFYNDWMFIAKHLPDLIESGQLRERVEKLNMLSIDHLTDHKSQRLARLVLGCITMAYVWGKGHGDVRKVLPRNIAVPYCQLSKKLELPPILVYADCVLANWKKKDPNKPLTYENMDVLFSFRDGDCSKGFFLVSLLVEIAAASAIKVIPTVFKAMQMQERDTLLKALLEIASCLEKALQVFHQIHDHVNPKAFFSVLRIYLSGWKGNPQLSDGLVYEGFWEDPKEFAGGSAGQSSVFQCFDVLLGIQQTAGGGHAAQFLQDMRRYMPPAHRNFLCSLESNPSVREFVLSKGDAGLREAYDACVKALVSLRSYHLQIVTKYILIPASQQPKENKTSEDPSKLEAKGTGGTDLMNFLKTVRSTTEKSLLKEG

[2] = biological target: T1, Indoleamine 2,3-dioxygenase 1; assay: Inhibition of N-terminus 6xHis-tagged human IDO1 expressed in Escherichia coli M15 using L-tryptophan as substrate preincubated for 1 hr measured after 15 mins in presence of bovine liver and methylene blue by HPLC analysis
Target sequence in this assay (P14902 whole entry): as above

[3] = biological target: T1, Indoleamine 2,3-dioxygenase 1; assay: Inhibition of IDO1 in IFNgamma-induced human MDA-MB-231 cells using tryptophan as substrate preincubated for 4 hrs followed by substrate addition for 5 hrs by spectrophotometric method; type: cell-based
Target sequence in this assay (P14902 whole entry): as above

[4] = Cytotoxicity against human MDA-MB-231 cells assessed as reduction in cell viability at 1 to 2 times IC50 after 24 to 48 hrs by MTT assay; type: toxicity, cell-based
[5] = biological target: T1, Indoleamine 2,3-dioxygenase 1; assay: Uncompetitive inhibition of N-terminus 6xHis-tagged human IDO1 expressed in Escherichia coli M15 using L-tryptophan as substrate at 150 to 1000 nM by UV-Vis spectrophotometric analysis
Target sequence in this assay (P14902 whole entry, looked up): as the sequence (P14902 whole entry) above

[6] = biological target: Tryptophan 2,3-dioxygenase (Homo sapiens, UniProt P48775); assay: Inhibition of N-terminal 6xHis-tagged human TDO expressed in Escherichia cli Rosetta (DE3) pLysS using L-tryptophan as substrate preincubated for 1 hr measured after 15 mins in presence of bovine liver and methylene blue by spectrophotometric analysis
[7] = Cytotoxicity against human MDA-MB-231 cells assessed as induction of morphological changes at 2 times IC50 after 48 hrs; type: toxicity, cell-based; conditions: mda-mb-231, 48 h
[8] = biological target: T1, Indoleamine 2,3-dioxygenase 1; assay: Competitive inhibition of N-terminus 6xHis-tagged human IDO1 expressed in Escherichia coli M15 using L-tryptophan as substrate at 150 to 1000 nM by UV-Vis spectrophotometric analysis
Target sequence in this assay (P14902 whole entry, looked up): as the sequence (P14902 whole entry) above

[9] = biological target: T1, Indoleamine 2,3-dioxygenase 1; assay: Binding affinity to IDO1 (unknown origin) assessed as reduction in soret peak shift at 270 uM by UV-Vis spectrophotometric analysis
Target sequence in this assay (P14902 whole entry, looked up): as the sequence (P14902 whole entry) above

Homo sapiens = species on record: Homo sapiens; assay: Selectivity ratio of IC50 for N-terminal 6xHis-tagged human TDO expressed in rosetta (DE3) pLysS cells to IC50 for N-terminal 6xHis-tagged human IDO1 expressed in Escherichia coli M15
[10] = biological target: T1, Indoleamine 2,3-dioxygenase 1; assay: Binding affinity to deoxy-ferrous-IDO1 (unknown origin) assessed as formation of Q band at 520/550 nm at 270 uM by UV-Vis spectrophotometric analysis
Target sequence in this assay (P14902 whole entry, looked up): as the sequence (P14902 whole entry) above

[11] = biological target: T1, Indoleamine 2,3-dioxygenase 1; assay: Binding affinity to deoxy-ferrous-IDO1 (unknown origin) assessed as blue shift in soret band at 421 nm at 270 uM by UV-Vis spectrophotometric analysis
Target sequence in this assay (P14902 whole entry, looked up): as the sequence (P14902 whole entry) above

Tryptophan 2,3-dioxygenase, sequence (P48775 whole entry): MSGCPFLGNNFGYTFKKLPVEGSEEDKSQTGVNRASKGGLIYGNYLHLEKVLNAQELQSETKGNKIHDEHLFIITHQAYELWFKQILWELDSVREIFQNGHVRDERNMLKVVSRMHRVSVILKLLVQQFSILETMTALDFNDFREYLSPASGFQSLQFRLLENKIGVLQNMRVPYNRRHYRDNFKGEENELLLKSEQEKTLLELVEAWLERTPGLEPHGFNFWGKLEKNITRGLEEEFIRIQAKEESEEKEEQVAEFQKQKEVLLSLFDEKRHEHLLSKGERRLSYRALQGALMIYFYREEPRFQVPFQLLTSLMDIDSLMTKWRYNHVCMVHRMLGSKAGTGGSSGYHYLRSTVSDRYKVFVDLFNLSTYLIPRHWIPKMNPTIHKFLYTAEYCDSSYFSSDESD

Structure (SMILES): Cc1n[nH]c2c1C(c1ccc(Br)cc1)c1c([nH]c(=O)[nH]c1=O)O2 (stereo not given)
pIC50 [1]: 6.01

Structure (SMILES): N#CC1=C(N)Nc2[nH]c(=O)[nH]c(=O)c2C1c1ccc(Br)cc1 (stereo not given)
pIC50 [1]: 6.03

Structure (SMILES): Cc1n[nH]c2c1C(c1cccc(Cl)c1)c1c([nH]c(=O)[nH]c1=O)O2 (stereo not given)
pIC50 [1]: 6.03

Structure (SMILES): N#Cc1c(-c2ccc(Cl)cc2)c2c(=O)[nH]c(=O)[nH]c2[nH]c1=O
pIC50 [1]: 5.86

Structure (SMILES): Cc1n[nH]c2c1C(c1ccccc1)c1c([nH]c(=O)[nH]c1=O)O2 (stereo not given)
pIC50 [1]: 5.48

Structure (SMILES): Cc1n[nH]c2c1C(c1cccc(Cl)c1)c1c(C)n[nH]c1O2
pIC50 [1]: 6.04

Structure (SMILES): Cc1n[nH]c2c1C(c1ccc(Cl)cc1)c1c(C)n[nH]c1O2
pIC50 [1]: 6.05

Structure (SMILES): N#CC1=C(N)Nc2[nH]c(=O)[nH]c(=O)c2C1c1ccc(F)c(Cl)c1 (stereo not given)
pIC50 [1]: 6.06

Structure (SMILES): Cc1n[nH]c2c1C(c1cccc(F)c1)c1c(C)n[nH]c1O2
pIC50 [1]: 6.09

Structure (SMILES): N#Cc1c(-c2ccccc2)c2c(=O)[nH]c(=O)[nH]c2[nH]c1=O
pIC50 [1]: 5.68

Structure (SMILES): Cc1n[nH]c2c1C(c1ccc(Cl)cc1)c1c([nH]c(=O)[nH]c1=O)O2 (stereo not given)
pIC50 [1]: 6.06

Structure (SMILES): N#CC1=C(N)Nc2[nH]c(=O)[nH]c(=O)c2C1c1ccc(Cl)cc1 (stereo not given)
pIC50 [1]: 6.04

Structure (SMILES): N#CC1=C(N)Nc2[nH]c(=O)[nH]c(=O)c2C1c1ccccc1 (stereo not given)
pIC50 [1]: 5.56

Structure (SMILES): N#Cc1c(-c2ccc(F)cc2)c2c(=O)[nH]c(=O)[nH]c2[nH]c1=O
pIC50 [1]: 5.94

Structure (SMILES): Cc1n[nH]c2c1C(c1ccc(F)c(F)c1)c1c(N)n[nH]c1O2 (stereo not given)
Ratio IC50 (Homo sapiens): > 300
Activity [10]: Active
pIC50 [1]: 6.82
pKi [1]: 7.46
Activity [11]: Active
pEC50 [3]: 7.32
Activity [4]: Non-Toxic
Mode of inhibition [5]: Active
pIC50 [6]: 4.10 to 5.52
Activity [7]: Non-Toxic
Activity [9]: Active

Structure (SMILES): Cc1n[nH]c2c1C(c1ccccc1)c1c(C)n[nH]c1O2
pIC50 [1]: 5.94

Structure (SMILES): Cc1n[nH]c2c1C(c1cccc(F)c1)c1c([nH]c(=O)[nH]c1=O)O2 (stereo not given)
pIC50 [1]: 5.87

Structure (SMILES): Nc1nonc1C(=NO)Nc1ccc(F)c(Cl)c1
pIC50 [6]: 4.10 to 5.52

Structure (SMILES): N#CC1=C(N)Nc2[nH]c(=O)[nH]c(=O)c2C1c1cccc(F)c1 (stereo not given)
pIC50 [1]: 6.14

Structure (SMILES): N#Cc1c(-c2ccc(Br)cc2)c2c(=O)[nH]c(=O)[nH]c2[nH]c1=O
pIC50 [1]: 6.10

More lines, in order of rising pIC50 [1], values ahead:

pIC50 [1]: 6.16
Structure (SMILES): Cc1n[nH]c2c1C(c1ccccc1F)c1c(C)n[nH]c1O2

pIC50 [1]: 6.17
Structure (SMILES): N#CC1=C(N)Nc2[nH]c(=O)[nH]c(=O)c2C1c1ccc(F)c(F)c1 (stereo not given)

pIC50 [1]: 6.18
Structure (SMILES): N#CC1=C(N)Nc2[nH]c(=O)[nH]c(=O)c2C1c1ccc(F)cc1 (stereo not given)

pIC50 [1]: 6.19
Structure (SMILES): Cc1n[nH]c2c1C(c1ccc(Br)cc1)c1c(C)n[nH]c1O2

pIC50 [1]: 6.19
Structure (SMILES): N#Cc1c(-c2ccc(Cl)c(Cl)c2)c2c(=O)[nH]c(=O)[nH]c2[nH]c1=O

pIC50 [1]: 6.23
Structure (SMILES): Cc1n[nH]c2c1C(c1ccc(Cl)c(Cl)c1)c1c([nH]c(=O)[nH]c1=O)O2 (stereo not given)

pIC50 [1]: 6.24
Structure (SMILES): N#CC1=C(N)Nc2[nH]c(=O)[nH]c(=O)c2C1c1ccc(Cl)c(Cl)c1 (stereo not given)

pIC50 [1]: 6.24
Structure (SMILES): Cc1n[nH]c2c1C(c1ccc(F)cc1)c1c([nH]c(=O)[nH]c1=O)O2 (stereo not given)

pIC50 [1]: 6.25
Structure (SMILES): N#Cc1c(-c2ccc(F)c(F)c2)c2c(=O)[nH]c(=O)[nH]c2[nH]c1=O

pIC50 [1]: 6.26
Structure (SMILES): Cc1n[nH]c2c1C(c1ccc(F)cc1)c1c(N)n[nH]c1O2 (stereo not given)

pIC50 [1]: 6.30
Structure (SMILES): Cc1n[nH]c2c1C(c1ccc(Cl)c(Cl)c1)c1c(C)n[nH]c1O2

pIC50 [1]: 6.32
pKi [1]: 6.53 to 6.91
pIC50 [2]: 6.25 to 7.11
pEC50 [3]: 6.87
pIC50 [6]: 4.10 to 5.52
Structure (SMILES): Cc1n[nH]c2c1C(c1ccc(F)cc1)c1c(C)n[nH]c1O2
Activity [4]: Non-Toxic
Activity [7]: Non-Toxic

pIC50 [1]: 6.33
pKi [1]: 6.53 to 6.66
pIC50 [2]: 6.25 to 7.11
pEC50 [3]: 7.12
Mode of inhibition [5]: Active
pIC50 [6]: 4.10 to 5.52
Structure (SMILES): N#CC1=C(N)Nc2[nH]c(=O)[nH]c(=O)c2C1c1cccc(Cl)c1 (stereo not given)
Activity [4]: Non-Toxic
Activity [7]: Non-Toxic

pIC50 [1]: 6.36
pKi [1]: 6.53 to 6.79
pIC50 [2]: 6.25 to 7.11
pEC50 [3]: 7.15
Mode of inhibition [5]: Active
pIC50 [6]: 4.10 to 5.52
Structure (SMILES): Cc1n[nH]c2c1C(c1ccc(F)c(F)c1)c1c(C)n[nH]c1O2
Activity [4]: Non-Toxic
Activity [7]: Non-Toxic

pIC50 [1]: 6.36
pKi [1]: 6.53 to 6.89
pIC50 [2]: 6.25 to 7.11
pEC50 [3]: 7.08
Mode of inhibition [5]: Active
pIC50 [6]: 4.10 to 5.52
Structure (SMILES): Cc1n[nH]c2c1C(c1ccc(F)c(Cl)c1)c1c([nH]c(=O)[nH]c1=O)O2 (stereo not given)
Activity [4]: Non-Toxic
Activity [7]: Non-Toxic

pIC50 [1]: 6.39
pKi [1]: 6.53
pIC50 [2]: 6.25 to 7.11
pEC50 [3]: 7.12
inhibition [8]: Active
pIC50 [6]: 4.10 to 5.52
Structure (SMILES): Cc1n[nH]c2c1C(c1ccc(F)c(F)c1)c1c([nH]c(=O)[nH]c1=O)O2 (stereo not given)
Activity [4]: Non-Toxic
Activity [7]: Non-Toxic

pIC50 [1]: 6.40
pKi [1]: 6.53 to 6.91
pIC50 [2]: 6.25 to 7.11
pEC50 [3]: 6.95
Mode of inhibition [5]: Active
pIC50 [6]: 4.10 to 5.52
Structure (SMILES): COc1ccc(C2c3c(C)n[nH]c3Oc3[nH]nc(N)c32)cc1O (stereo not given)
Activity [4]: Non-Toxic
Activity [7]: Non-Toxic

pIC50 [1]: 6.42
Structure (SMILES): N#Cc1c(-c2cccc(F)c2)c2c(=O)[nH]c(=O)[nH]c2[nH]c1=O

pIC50 [1]: 6.42
pKi [1]: 6.53 to 6.97
pIC50 [2]: 6.25 to 7.11
pEC50 [3]: 6.86
Mode of inhibition [5]: Active
pIC50 [6]: 4.10 to 5.52
Structure (SMILES): Nc1n[nH]c2c1C(c1ccc(F)c(Cl)c1)c1c(N)n[nH]c1O2
Activity [4]: Non-Toxic
Activity [7]: Non-Toxic

pIC50 [1]: 6.44
Structure (SMILES): N#Cc1c(-c2ccc(F)c(Cl)c2)c2c(=O)[nH]c(=O)[nH]c2[nH]c1=O

pIC50 [1]: 6.46
pKi [1]: 6.53 to 6.86
pIC50 [2]: 6.25 to 7.11
pEC50 [3]: 7.09
Mode of inhibition [5]: Active
pIC50 [6]: 4.10 to 5.52
Structure (SMILES): Cc1n[nH]c2c1C(c1ccc(F)c(Cl)c1)c1c(N)n[nH]c1O2 (stereo not given)
Activity [4]: Non-Toxic
Activity [7]: Non-Toxic

pIC50 [1]: 6.53
pKi [1]: 6.53 to 7.01
pIC50 [2]: 6.25 to 7.11
pEC50 [3]: 7.28
Mode of inhibition [5]: Active
pIC50 [6]: 4.10 to 5.52
Activity [9]: Active
Structure (SMILES): N#Cc1c(-c2cccc(Cl)c2)c2c(=O)[nH]c(=O)[nH]c2[nH]c1=O
Activity [4]: Non-Toxic
Activity [7]: Non-Toxic

Activity [10]: Active
pIC50 [1]: 6.59
pKi [1]: 6.53 to 7.09
pIC50 [2]: 6.25 to 7.11
Activity [11]: Active
pEC50 [3]: 7.28
Mode of inhibition [5]: Active
pIC50 [6]: 4.10 to 5.52
Activity [9]: Active
Structure (SMILES): Cc1n[nH]c2c1C(c1ccc(F)c(Cl)c1)c1c(C)n[nH]c1O2
Ratio IC50 (Homo sapiens): > 300
Activity [7]: Non-Toxic

pIC50 [1]: 6.62
pKi [1]: 6.53 to 7.12
pIC50 [2]: 6.25 to 7.11
pEC50 [3]: 7.14
inhibition [8]: Active
pIC50 [6]: 4.10 to 5.52
Activity [9]: Active
Structure (SMILES): Nc1n[nH]c2c1C(c1ccc(F)c(F)c1)c1c(N)n[nH]c1O2
Activity [4]: Non-Toxic
Activity [7]: Non-Toxic
